Columns and labels:
nestin-positive NIPs = assay: Intracellular Ca2+ concentration in single isolated NIPs; type: cell-based, human
Protocol: The application of GLP-1 amide to single, isolated […] elevates levels of intracellular Ca^2+ concentration ([Ca^2+]i). Cells were plated onto gridded coverslips to permit subsequent immunohistochemical staining of the same cells to test for nestin expression.

NIP cultures = assay: Immunocytochemical detection of differentiation of NIPs; type: cell-based, human; details: for Idx-1 immunostaining / insulin immunostaining: NIP cultures expanded 7-10 days, then treated
Protocol: Nestin-positive pancreatic islet stem cells were analyzed for GLP-1R expression. Human islet tissue was obtained from the Juvenile Diabetes Research Center for Islet Transplantation, Harvard Medical School. NIPs were isolated as described previously (Zulewski, et al., 2001, Diabetes 50: 521). Briefly, islets were washed and cultured in RPMI 1640 medium containing serum, 11.1 mM glucose, antibiotics, sodium pyruvate, β-mercaptoethanol, and growth factors. Within several days, nestin-positive cells (identified immunocytochemically as described above) grew out from the islets. Later, these cells were cloned and expanded in medium containing 20 ng/ml of basic fibroblast growth factor and epidermal growth factor or 1000 units of recombinant human leukemia inhibitory factor. Incubation with GLP-1 was administered in the absence of serum and fresh peptide was added every 48 h without changing the medium.
Immunocytochemical detection of GLP-1R was performed using rabbit polyclonal antisera (Heller et al., supra) as follows. Cells cultured on Lab-Tek chamber slides (Nunc, Naperville, Ill.) or gridded coverslips (Bellco Glass, NJ) were fixed with 4% paraformaldehyde in PBS for 10 minutes at room temperature. After several rinses in PBS, cells were blocked with normal donkey serum for 30 minutes and incubated with primary antisera or pre-immune sera at 4° C. The following day, cells were rinsed with PBS and incubated with secondary antisera (donkey anti-rabbit and donkey anti-guinea pig) labeled with Cy-3 or Cy-2 for 1 hour at room temperature. After several washes, coverslips containing cells were mounted onto slides in mounting medium containing DAPI (Vector Laboratories, Burlingame, Calif.) which stains nuclei. Fluorescence images were obtained using a Zeiss epifluorescence microscope equipped with an Optronics TEC-470 CCD camera (Optronics Engineering, Goleta, Calif.) interfaced with a Powermac 7100. IP lab Spectrum software (Signal Analytics, Vienna, Va.) was used to acquire and analyze images.
NIPs were picked from islet cultures and expanded in growth medium containing bFGF plus EGF (passage 01) for 3-10 days (Zulewski et al., 2001 Diabetes 50: 521). In certain instances NIPOs that were expanded for 3-5 days were fixed and subjected to immunocytochemical detection of Nestin (Cy-3) and Insulin (Cy-2) as shown in FIG. 24A. […] Accordingly, treatment with Extendin-4 induced a 2- to 3-fold increase in insulin secretion (FIG. 25). However, in some culture wells, confluence alone was sufficient to initiate small amounts of insulin secretion.

[1] = test system: partial pancreatectomy rat model of type 2 diabetes; details: daily administration for 10 days post pancreatectomy; cited from earlier work
islet mass = assay: Islet mass after injection of GLP-1 into mice; type: in vivo; details: in 48 hours
diabetic mice = details: cited from earlier work

Extendin (9-39): peptide, a specific antagonist of GLP-1 (GLP-1R antagonist)
increase in [Ca2+]i mediated by GLP-1 (nestin-positive NIPs; pretreatment of single isolated NIPs with antagonist): prevents the increase

[La+3] [La^3+]
[Ca2+]i increase mediated by GLP-1 (nestin-positive NIPs; extracellular La3+ 5 μM): inhibited

CCCCNC(=O)NS(=O)(=O)c1ccc(C)cc1 [tolbutamide]
[Ca2+]i elevation (nestin-positive NIPs; tolbutamide 100 μM): stimulates [Ca^2+]i elevation

exendin-4 [Extendin-4]
Idx-1 immunostaining (NIP cultures): Idx-1 positive
insulin immunostaining (NIP cultures): a subset of cells became insulin positive
development of diabetes [1]: attenuated the development of diabetes

glucagon-like peptide-1 (HDEFERHAEGTFTSDVSSYLEGQAAKEFIAWLVKGRG) [GLP-1, insulinotropic hormone glucagon-like peptide (GLP)-1 produced by the intestine]
increase of islet mass (islet mass): 2 fold
Idx-1 immunostaining (NIP cultures): Idx-1 positive
insulin immunostaining (NIP cultures): a subset of cells became insulin positive
nestin expression of the cultures (NIP cultures; cultures treated with GLP-1): overall decrease in nestin expression
[Ca2+]i levels (nestin-positive NIPs; basal (5.6 mM) glucose): stimulates [Ca^2+]i levels
[Ca2+]i levels (nestin-positive NIPs; high (20 mM) glucose): ineffective
blood sugar levels (diabetic mice): effectively lowers their blood sugar levels
insulin secretion (diabetic mice): stimulates insulin secretion

Reference: patent US8110399B2, “Stem cells of the islets of langerhans and their use in treating diabetes mellitus” (The General Hospital Corporation, priority 1999, dated 2012)
